The results in this text go back to patent publication US8445028B2, “Echinoderm-derived extracts, methods of preparation and uses thereof” (Rival, S.E.C., priority 2008, dated 2013).

A short description of this experiment: Oxygen Radical Absorption Capacity (ORAC) assay, fluorescein/AAPH, Trolox equivalents. Conditions: pure antioxidants, analyses performed in the present studies; Table IV. In kind it is biochemical. The source says:
The Oxygen Radical Absorption Capacity (ORAC) assay is commonly used to measure the antioxidative capacity of various antioxidants. The ORAC assay provides an effective measure of antioxidant protection afforded to physiologically important biomolecules such as proteins. ORAC assays that may be used in the present invention include, for example, those described in U.S. Pat. No. 6,060,324, Methods in Enzymology (1999) 299: 50-62 (Cao and Prior), and Ou et al., 2001. J. Agric. Food Chem. 49: 4619-4626. […] Unless otherwise stated, the ORAC values are expressed as a TroloxTM equivalent value per gram of extract. Antioxidant properties of extracts were estimated using the Oxygen Radical Absorption Capacity (ORAC) method. The analytical procedure has been adapted from a published method (Ou et al., 2001. J. Agric. Food Chem. 49: 4619-4626), using 96-well microplates and a […] spectrofluorometer (Molecular Devices Corporation, Sunnyvale, Calif., USA). After appropriate dilution (typically between 1/100 to 1/1000), a 30-μl aliquot of the extract was added to each well in which 150 μl of 1.04 μM fluorescein and 30 μl of 162 mM 2,2'-azobis (2-amidinopropane) hydrochloride (AAPH) were previously added. TroloxTM (6-hydroxy-2,5,7,8-tetramethylchroman-2-carboxylic acid), a water soluble analog of vitamin E, was used as positive control, and phosphate buffer pH 7.4 was used as the analytical blank. The reactive mixture was incubated at 37.5° C. for 90 min. Final results were calculated as a function of the difference between the surface under the curves between blanks and extracts, and the antioxidant properties expressed as ORAC values in equivalent micromolar of TroloxTM by dry weight of the sample (μmol TE/g extract).

In the case of `CC1=C(/C=C/C(C)=C/C=C/C(C)=C/C=C/C=C(C)/C=C/C=C(C)/C=C/C2=C(C)CCCC2(C)C)C(C)(C)CCC1` [β-carotene], the ORAC values was 3183 μmol TE/g dry extract.

As for Catechin, the ORAC values worked out at 16601 μmol TE/g dry extract.

In the case of `Cc1c(C)c2c(c(C)c1O)CC[C@@](C)(CCC[C@H](C)CCC[C@H](C)CCCC(C)C)O2` [α-Tocopherol], the ORAC values was 5657 μmol TE/g dry extract.
